The values below come from US20090270442A1, “POLYMORPHS OF HYDROCHLORIDE SALT OF 5-(3-(ETHYLSULFONYL)PHENYL)-3,8-DIMETHYL-N-(1-METHYLPIPERIDIN-4-YL)-9H-PYRIDO[2,3-B]INDOLE-7-CARBOXAMIDE AND METHODS OF USE THEREFOR” (TAKEDA PHARMACEUTICAL COMPANY LIMITED, priority 2008, published 2009).

Holding throughout (type): physicochemical
Data set [1] in a line: DI water slurry during the concurrent process control screen. The following applies: several hours (2-24 hours).
A short description of data set [2]: MeCN/water slurry experiments of Forms A and C at ambient temperature (Table 35). Particulars: MeCN/water at different ratios. On the procedure:
Slurry experiments of Compound 1, Forms A and C, were conducted in mixtures of MeCN and water. Each vial was charged with approximately 40 mg of Compound 1 (pure Form A, pure Form C, or 50:50 mixtures) and 2 mL of MeCN/water mixture in a 1:9, 1:1, and 9:1 ratio. […] All samples were stirred at room temperature for approximately 24 hours. An aliquot (1 mL) of the suspension was taken from the slurries (samples #1, 3, 4, 6, 7 and 9) for determination of form by XRPD. All aliquots were filtered and dried in vacuo at 30 mm Hg and ambient temperature. All samples were stirred at ambient temperature for an additional six days, filtered, dried, and again the solid form and filterability were determined.

Data set [3] can be described thus: Karl Fischer analysis (KF), water content. Particulars: theoretical for a monohydrate 3.2%. The protocol: Water content was determined by adding solid sample to the instrument with HYDRANAL-Coulomat AD. Micrograms of water were determined by coulometric titration.
A short description of data set [4]: Humidity chamber study at 0% and 95% RH, one week, XRPD and KF (Table 38). The following applies: 95% RH for one week, ambient temperature. The protocol:
The 0% RH chamber was prepared with drierite and the 95% RH chamber was made with a saturated solution of Na2HPO4.12H2O in DI water. The chambers were equilibrated for >1 week prior to introducing samples. Samples were placed in Teflon-lined caps for scintillation vials and allowed to equilibrate for one week then analyzed by XRPD and KF to determine form and water content.
FIG. 60 summarizes the conversion of the forms of Compound 1 observed from slurry and humidity chamber studies.

Data set [5] is described as follows: Moisture-sorption analysis (adsorption/desorption, then drying 1 h at 80° C. and XRPD) (Table 40). On the procedure:
Moisture-sorption experiments were carried out on three forms by first drying the sample at 0% RH and 25° C. until an equilibrium weight was reached or for a maximum of four hours. The sample was then subjected to an isothermal (25° C.) adsorption scan from 10 to 90% RH in steps of 10%. The sample was allowed to equilibrate to an asymptotic weight at each point for a maximum of four hours. Following adsorption, a desorption scan from […] to 0% RH (at 25° C.) was run in steps of −10%, again allowing a maximum of four hours for equilibration to an asymptotic weight. The sample was then dried for one hour at 80° C. and the resulting solid analyzed by XRPD.

Data set [6] can be described thus: 1 week slurry experiments in water, IPA, EtOAc, MeCN, EtOH and dioxane, form by XRPD (Table 34). The following applies: room temperature, one week. On the procedure:
Each vial was charged with approximately 25-30 mg of API and 1 mL of the corresponding solvent, followed by stirring at room temperature for one week. […] The obtained solids were isolated by filtration, dried under vacuum at room temperature and analyzed by XRPD.

As to `CCS(=O)(=O)c1cccc(-c2cc(C(=O)NC3CCN(C)CC3)c(C)c3[nH]c4ncc(C)cc4c23)c1` [Form B], in data set [1], the “form isolated after slurry in DI water” value was “Form A was isolated”.

As for `CCS(=O)(=O)c1cccc(-c2cc(C(=O)NC3CCN(C)CC3)c(C)c3[nH]c4ncc(C)cc4c23)c1` [Form C], the “form after acetonitrile/water slurries” value in data set [2] is given as “converted to the monohydrate Form A”. Besides, in data set [3], the “water content by KF” value stood at 1.4%. In data set [4], the “form after humidity exposure” value is “converted to Form A”. In data set [5] (25° C.), the “hygroscopicity (moisture sorption curve)” value was “slightly hygroscopic” and the hysteresis upon desorption entry is on record as “not observed”. In addition, the maximum water uptake in data set [5] (at 90% RH, 25° C.) is reported as 1.9%. In data set [5] (dried for one hour at 80° C.), the “XRPD pattern after drying” value was “consistent to the starting form”. Besides, the “form after slurry in non-aqueous solvents” value in data set [6] (solvents other than water) is on record as “stable anhydrate form in non-aqueous environments”. Besides, the “form isolated after slurry in water” value in data set [6] (water slurry) is “converted to the monohydrate Form A”.
